What follows are compounds tested against T1, HIV-1 integrase (Human immunodeficiency virus type 1 group M subtype B, UniProt P04585) (assay: Disintegration assay with Y-oligomer substrate). Conditions: In vitro IC50 Disintegration, Mg2+.
T1 construct: Expression and purification of the recombinant HIV-1 integrase in Escherichia coli; made in house; host or cells: Escherichia coli
Type: biochemical
Protocol: (§1) Recombinant HIV integrase and oligonucleotide substrates. Expression and purification of the recombinant HIV-1 integrase in Escherichia coli were performed according to (Leh et al., 2000; Marchand et al., 2001) with addition of 10% glycerol to all buffers. The preparation of the Q148C/SSS-mutant integrase will be described elsewhere (Johnson et al., 2005). The oligonucleotide substrates, except those used for the disulfide crosslinking (FIG. 5A), were purchased from Integrated DNA Technologies, Inc. (Coraville, Iowa) and purified by polyacrylamide gel. The single-stranded oligonucleotides were 5′-end labeled with [γ^32P]-ATP (Perkin Elmer, Wellesley, M A) and T4 polynucleotide kinase (New England BioLabs, Ipswich, M A). Unincorporated nucleotide was removed using mini Quick Spin Oligo columns (Roche Diagnostics, Indianapolis, Ind.). Substrates were obtained after annealing with complementary non-labeled oligonucleotides. The thiol-modified substrate (FIG. 5A) for disulfide crosslinking assay was synthesized as essentially described by W. Santos and G. Verdine (Department of Chemistry and Chemical Biology, Harvard University, Cambridge, Mass.) (They and Verdine, 2002).
(§2) Integrase catalytic assays. Reactions were performed in 10 μl with 300 nM of recombinant IN, 20 nM of the 5′-end [^32P]-labeled oligonucleotide substrates and inhibitors at the indicated concentrations. 10% DMSO was included in controls. Reactions were incubated for 40 min at 37° C. in a buffer containing a final concentration of 25 mM MOPS, pH 7.2, 25 mM NaCl, 14.3 mM β-mercaptoethanol and 7.5 mM of divalent cations (MgCl2 or MnCl2 as indicated). Reactions were stopped by addition of 20 μl loading dye (10 mM EDTA, 98% deionized formamide, 0.025% xylene cyanol and 0.025% bromophenol blue). Reactions were heated at 95° C. for 1 min before electrophoresis in 20% polyacrylamide-7 M urea gels. Gels were dried and reaction products were visualized and quantitated with a Molecular Dynamics PhosphorImager (Sunnyvale, Calif.). Densitometric analyses were performed using ImageQuant from the Molecular Dynamics software. The concentrations at which enzyme activity was reduced by 50% (IC50), was determined using “Prism” software (GraphPad Software, San Diego, Calif.) for nonlinear regression to fit dose-response data to logistic curve models.
In the case of CC(C)c1cccc(=O)c(O)c1 [NSC 18804, β-thujaplicin], the IC50 is reported as over 333 µM.
Compound CC(C)c1ccccc(=O)c1O [NSC 18805, α-thujaplicin] has an IC50 of over 333 µM.
Compound CC(C)c1ccc(O)c(=O)cc1 [NSC 43338, γ-thujaplicin] has an IC50 of over 333 µM.

Same assay, conditions: In vitro IC50 Disintegration, Mn2+
With CC(C)c1cccc(=O)c(O)c1 [NSC 18804, β-thujaplicin] the IC50 was over 333 µM.
Work on CC(C)c1ccccc(=O)c1O [NSC 18805, α-thujaplicin] yielded an IC50 of over 333 µM.
Compound CC(C)c1ccc(O)c(=O)cc1 [NSC 43338, γ-thujaplicin] has an IC50 of over 333 µM.

Same assay, conditions: Mn2+; drug concentration of 333 μM
In the case of CC(C)c1cccc(=O)c(O)c1 [NSC 18804, β-thujaplicin], the “inhibition activity, disintegration” value is reported as 1 (inhibition activity ≦ 5%).
CC(C)c1ccccc(=O)c1O [NSC 18805, α-thujaplicin] was tested, and the “inhibition activity, disintegration” value was 1 (inhibition activity ≦ 5%).
In the case of CC(C)c1ccc(O)c(=O)cc1 [NSC 43338, γ-thujaplicin], the “inhibition activity, disintegration” value is reported as 1 (inhibition activity ≦ 5%).

Same assay, conditions: read-out: inhibition activity, disintegration
CC(C)c1cccc(=O)c(O)c1 [NSC 18804, β-thujaplicin] showed an inhibition at 333 µM of under 5%.
For CC(C)c1ccccc(=O)c1O [NSC 18805, α-thujaplicin], the inhibition at 333 µM was under 5%.
In the case of CC(C)c1ccc(O)c(=O)cc1 [NSC 43338, γ-thujaplicin], the inhibition at 333 µM is reported as under 5%.

These compounds were tested against T1, HIV-1 integrase (assay: Strand transfer assay with preprocessed (19/21) DNA substrate). Conditions: In vitro IC50 Preprocessed substrate, Mg2+.
Type: biochemical
Protocol: as §1, §2
CC(C)c1cccc(=O)c(O)c1 [NSC 18804, β-thujaplicin] showed an IC50 of over 333 µM.
CC(C)c1ccccc(=O)c1O [NSC 18805, α-thujaplicin] gave an IC50 of over 333 µM.
CC(C)c1ccc(O)c(=O)cc1 [NSC 43338, γ-thujaplicin] was tested, and the IC50 was over 333 µM.

Same assay, conditions: In vitro IC50 Preprocessed substrate, Mn2+
For CC(C)c1cccc(=O)c(O)c1 [NSC 18804, β-thujaplicin], the IC50 was over 333 µM.
CC(C)c1ccccc(=O)c1O [NSC 18805, α-thujaplicin] gave an IC50 of over 333 µM.
CC(C)c1ccc(O)c(=O)cc1 [NSC 43338, γ-thujaplicin] showed an IC50 of over 333 µM.

Same assay, conditions: read-out: inhibition activity, preprocessed substrate, Mg2+; drug concentration of 333 μM
For CC(C)c1cccc(=O)c(O)c1 [NSC 18804, β-thujaplicin], the inhibition at 333 µM was 5 to 20%.
CC(C)c1ccccc(=O)c1O [NSC 18805, α-thujaplicin] showed an inhibition at 333 µM of under 5%.
Compound CC(C)c1ccc(O)c(=O)cc1 [NSC 43338, γ-thujaplicin] has an inhibition at 333 µM of under 5%.

Same assay, conditions: read-out: inhibition activity, preprocessed substrate, Mn2+; drug concentration of 333 μM
Work on CC(C)c1cccc(=O)c(O)c1 [NSC 18804, β-thujaplicin] yielded an inhibition at 333 µM of 5 to 20%.
Compound CC(C)c1ccccc(=O)c1O [NSC 18805, α-thujaplicin] has an inhibition at 333 µM of under 5%.
Compound CC(C)c1ccc(O)c(=O)cc1 [NSC 43338, γ-thujaplicin] has an inhibition at 333 µM of under 5%.

What follows are compounds tested against T1, HIV-1 integrase (assay: Integrase catalytic assay, 3′-processing (3′-P), 21 bp duplex substrate). Conditions: In vitro IC50 21 bp substrate 3′-P, Mg2+.
Type: biochemical
Protocol: as §1, §2
CC(C)c1cccc(=O)c(O)c1 [NSC 18804, β-thujaplicin] gave an IC50 of over 333 µM.
With CC(C)c1ccccc(=O)c1O [NSC 18805, α-thujaplicin] the IC50 was over 333 µM.
CC(C)c1ccc(O)c(=O)cc1 [NSC 43338, γ-thujaplicin] was tested, and the IC50 was over 333 µM.

Same assay, conditions: In vitro IC50 21 bp substrate 3′-P, Mn2+
Compound CC(C)c1cccc(=O)c(O)c1 [NSC 18804, β-thujaplicin] has an IC50 of over 333 µM.
CC(C)c1ccccc(=O)c1O [NSC 18805, α-thujaplicin] was tested, and the IC50 was over 333 µM.
Compound CC(C)c1ccc(O)c(=O)cc1 [NSC 43338, γ-thujaplicin] has an IC50 of over 333 µM.

Same assay, conditions: read-out: inhibition activity, 3′-P, 21 bp substrate, Mg2+; drug concentration of 333 μM
With CC(C)c1cccc(=O)c(O)c1 [NSC 18804, β-thujaplicin] the inhibition at 333 µM was 20 to 40%.
In the case of CC(C)c1ccccc(=O)c1O [NSC 18805, α-thujaplicin], the inhibition at 333 µM is reported as 5 to 20%.
For CC(C)c1ccc(O)c(=O)cc1 [NSC 43338, γ-thujaplicin], the inhibition at 333 µM was under 5%.

Same assay, conditions: read-out: inhibition activity, 3′-P, 21 bp substrate, Mn2+; drug concentration of 333 μM
With CC(C)c1cccc(=O)c(O)c1 [NSC 18804, β-thujaplicin] the inhibition at 333 µM was 20 to 40%.
In the case of CC(C)c1ccccc(=O)c1O [NSC 18805, α-thujaplicin], the inhibition at 333 µM is reported as 5 to 20%.
CC(C)c1ccc(O)c(=O)cc1 [NSC 43338, γ-thujaplicin] showed an inhibition at 333 µM of under 5%.

These compounds were tested against T1, HIV-1 integrase (assay: Integrase catalytic assay, strand transfer (ST), 21 bp duplex substrate). Conditions: In vitro IC50 21 bp substrate ST, Mg2+.
Type: biochemical
Protocol: as §1, §2
With CC(C)c1cccc(=O)c(O)c1 [NSC 18804, β-thujaplicin] the IC50 was over 333 µM.
In the case of CC(C)c1ccccc(=O)c1O [NSC 18805, α-thujaplicin], the IC50 is reported as over 333 µM.
For CC(C)c1ccc(O)c(=O)cc1 [NSC 43338, γ-thujaplicin], the IC50 was over 333 µM.

Same assay, conditions: In vitro IC50 21 bp substrate ST, Mn2+
In the case of CC(C)c1cccc(=O)c(O)c1 [NSC 18804, β-thujaplicin], the IC50 is reported as over 333 µM.
Work on CC(C)c1ccccc(=O)c1O [NSC 18805, α-thujaplicin] yielded an IC50 of over 333 µM.
For CC(C)c1ccc(O)c(=O)cc1 [NSC 43338, γ-thujaplicin], the IC50 was over 333 µM.

Same assay, conditions: Mn2+ as cofactor, U5 LTR DNA substrate
With CC(C)c1cccc(=O)c(O)c1 [NSC 18804, β-thujaplicin] the “potency against HIV-1 integrase relative to the minimal tropolone core” value was “failed to increase potency”.
With CC(C)c1ccccc(=O)c1O [NSC 18805, α-thujaplicin] the “potency against HIV-1 integrase relative to the minimal tropolone core” value was “failed to increase potency”.
For CC(C)c1ccc(O)c(=O)cc1 [NSC 43338, γ-thujaplicin], the “potency against HIV-1 integrase relative to the minimal tropolone core” value was “failed to increase potency”.

Same assay, conditions: Mn2+; drug concentration of 333 μM
In the case of CC(C)c1cccc(=O)c(O)c1 [NSC 18804, β-thujaplicin], the “inhibition activity, ST, 21 bp substrate” value is reported as 2 (5% < inhibition activity < 20%).
CC(C)c1ccccc(=O)c1O [NSC 18805, α-thujaplicin] was tested, and the “inhibition activity, ST, 21 bp substrate” value was 1 (inhibition activity ≦ 5%).
CC(C)c1ccc(O)c(=O)cc1 [NSC 43338, γ-thujaplicin] was tested, and the “inhibition activity, ST, 21 bp substrate” value was 1 (inhibition activity ≦ 5%).

Same assay, conditions: read-out: inhibition activity, ST, 21 bp substrate
Compound CC(C)c1cccc(=O)c(O)c1 [NSC 18804, β-thujaplicin] has an inhibition at 333 µM of 5 to 20%.
In the case of CC(C)c1ccccc(=O)c1O [NSC 18805, α-thujaplicin], the inhibition at 333 µM is reported as under 5%.
CC(C)c1ccc(O)c(=O)cc1 [NSC 43338, γ-thujaplicin] gave an inhibition at 333 µM of under 5%.

What follows are compounds tested against T2, Q148C/SSS-mutant integrase (Human immunodeficiency virus type 1 group M subtype B, UniProt P04585, C1203S/C1212S/C1427S/Q1295C) (assay: biochemical). Conditions: drug 1 mM; Mg2+ or Mn2+ (FIG. 5B).
T2 construct: 10 μM recombinant Q148C/SSS-mutant integrase was incubated with 10 μM DNA substrate; made in house
Type: binding, HIV-1
Protocol: Briefly, 10 μM recombinant Q148C/SSS-mutant integrase was incubated with 10 μM DNA substrate (FIG. 5A) containing tethered thiols in the presence of 20 mM Tris, pH 7.4, 10% glycerol and 7.5 mM of divalent cations (MgCl2 or MnCl2 as indicated) for 20 min at 37° C. Reactions were stopped by the addition of 20 mM methylmethanethiosulfonate (capping reagent). Non-reducing gel loading buffer (100 mM Tris-HCl, pH 6.8, 4% SDS, 0.2% bromophenol blue, 20% glycerol) was added and samples were heated at 95° C. before loading onto 16% tricine gels (Invitrogen, Carlsbad, Calif.). Gels were stained with Microwave Blue according to manufacturer's recommendations (Protiga, Frederick, Md.).
DNA (20 nM) containing a [5′-^32P]-label on one strand and a thiol-modified cytosine on the other strand was added and reactions were capped with methylmethanethiosulfonate at 1 minute. Following capping, non-reducing gel loading buffer (100 mM Tris-HCl, pH 6.8, 4% SDS, 0.2% bromophenol blue, 20% glycerol) was added and samples were directly loaded on 16% tricine gels (Invitrogen, Carlsbad, Calif.). Gels were dried and reaction products were quantitated using the same way as described above.
With CC(C)c1cccc(=O)c(O)c1 [NSC 18804, β-thujaplicin] the “inhibition of integrase-DNA disulfide-crosslinking (in words)” value was “lack of inhibition”.
